Patent publication EP4631938A1, “NITROGEN-CONTAINING HETEROCYCLE WITH SEROTONIN RECEPTOR-BINDING ACTIVITY AND CARBOCYCLIC DERIVATIVE” (Shionogi & Co., Ltd, priority 2022, dated 2024)
Read-outs that look alike come from different tables or passages of the source.

Key:
[1] = target: T1, human recombinant 5-HT2A receptor (Homo sapiens, UniProt P28223); assay: Test Example 1-2: 5-HT2A receptor binding inhibition test ([3H]-Ketanserin; non-specific ligand Ketanserin)
T1 construct: expressed in transfected cells; host or cells: Jump-In HEK cells (membrane preparation)
Outline: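 Membranes expressing the receptor were incubated with [3H]-ketanserin and compound for 1.5 h at 25 °C, then filtered onto plates presoaked in 50 mmol/L Tris-HCl pH 7.4 and scintillation-counted. Non-specific binding was defined with 500 µmol/L unlabeled ketanserin. Ki was taken from dose-response curves, with Kd set for each membrane lot by Scatchard analysis.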

[2] = target: T2, human recombinant 5-HT2C receptor (Homo sapiens, UniProt P28335); assay: Test Example 2-2: 5-HT2C receptor binding inhibition test ([3H]-Mesulergine; non-specific ligand Ketanserin); settings: non-specific binding with 500 µmol/L Ketanserin, 37°C, 2 hours
T2 construct: expressed in transfected cells; host or cells: Jump-In HEK cells (membrane preparation)
T2 sequence (P28335 33-458): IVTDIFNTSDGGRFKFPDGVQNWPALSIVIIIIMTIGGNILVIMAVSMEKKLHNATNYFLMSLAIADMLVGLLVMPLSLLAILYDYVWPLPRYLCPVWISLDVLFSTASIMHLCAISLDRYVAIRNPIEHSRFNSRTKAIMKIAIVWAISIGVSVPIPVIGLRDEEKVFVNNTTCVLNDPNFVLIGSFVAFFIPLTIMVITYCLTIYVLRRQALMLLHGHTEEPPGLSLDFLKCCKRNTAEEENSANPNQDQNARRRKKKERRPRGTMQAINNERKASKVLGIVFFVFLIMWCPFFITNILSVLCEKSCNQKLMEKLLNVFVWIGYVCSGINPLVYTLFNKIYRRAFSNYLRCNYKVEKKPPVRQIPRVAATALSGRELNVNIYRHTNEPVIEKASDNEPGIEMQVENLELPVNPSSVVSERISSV
Description: The Kd value is calculated when the lot of the cell membrane is changed. 1 mmol/L non-specific binding calculating compound dissolved in DMSO or DMSO is previously dispensed to the microplate by 0.5 µL, and the cell membrane is diluted with an Assay buffer. The radioactive ligand solution is diluted step by step, and counts are checked with a liquid scintillator. The Assay buffer containing diluted cell membranes is dispensed by 50 µL/well into the microplate. The radioactive ligand solution is then dispensed by 50 µL/well into the microplate and the plate is sealed. The microplate is allowed to stand at 37°C for 2 hours. During this time, 50 mmol/L Tris-HCl (pH 7.4) is dispensed by 50 µL/well into the UniFilter plate and allowed to stand at 4°C for 1 hour or longer. Thereafter, filtration is performed with a Cell Harvester (PerkinElmer). The radioactive ligand solution is dispensed by 10 µL/well into empty wells of the UniFilter plate. After drying the UniFilter plate at room temperature, MicroScinti20 is dispensed by 50 µL/well into the UniFilter plate, and the plate is sealed. UniFilter plate is allowed to stand at room temperature overnight. The radioactivity of [^3H]-Mesulergine bound to the 5-HT2C receptor is measured using Microbeta2 (PerkinElmer) at a measurement time of 1 min/well. The Saturation curve is drawn from the measured value, and the Kd value is calculated from the slope of the Scatchard Plot.
A compound solution dissolved in DMSO is dispensed to a microplate by 0.5 µL, and a cell membrane and a hot ligand are each diluted with an Assay buffer. The Assay buffer containing diluted cell membrane is then dispensed by 50 µL/well into the microplate. The radioactive ligand solution is then dispensed by 50 µL/well into the microplate and the plate is sealed. The microplate is then allowed to stand at 37°C for 2 hours. During this time, 50 mmol/L Tris-HCl (pH 7.4) is dispensed by 50 µL/well into the UniFilter plate and allowed to stand at 4°C for 1 hour or longer. Thereafter, filtration is performed with a Cell Harvester (PerkinElmer). After drying the UniFilter plate at room temperature, MicroScinti20 is dispensed by 50 µL/well into the UniFilter plate, and the plate is sealed. UniFilter plate is allowed to stand at room temperature overnight. The radioactivity of [^3H]-Mesulergine bound to the 5-HT2C receptor is measured using Microbeta2 (PerkinElmer) at a measurement time of 1 min/well. Non-specific binding is calculated from the radioactivity of [^3H]-Mesulergine in the presence of 500 µmol/L Ketanserin of unlabeled ligand, and total binding is calculated from the radioactivity of [^3H]-Mesulergine in the absence of the compound of the present invention (Vehicle). Finally, the Ki value is calculated from the dose-response curve.
(The binding activity of the compound according to the present invention is calculated from the following binding inhibition rate (%).) Inhibition rate (%) = [1−(c−a)/(b−a)] × 100 [formula] • a; average cpm of non-specific binding • b; average cpm of total binding • c; cpm in the presence of the test compound
The compounds of the present invention were tested essentially as described above.

[3] = target: T2, human recombinant 5-HT2C receptor; assay: Test Example 2: 5-HT2C receptor binding inhibition test ([3H]-Mesulergine; non-specific ligand Serotonin HCl); settings: human serotonin 5-HT2C receptor binding activity
Outline: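 Filtration binding to membranes bearing human 5-HT2C with [3H]-mesulergine, 2 h at 37°C; non-specific binding defined with 500 µmol/L serotonin HCl, total binding with vehicle. Inhibition rate computed from cpm; Ki derived from dose-response curve, with ligand Kd from Scatchard analysis of saturation binding.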

[4] = [3H]-Ketanserin, non-specific binding with 500 µmol/L Ketanserin, room temperature (25°C), 1.5 hours, read-out: h 5-HT2A Ki

T1 sequence (P28223 whole entry): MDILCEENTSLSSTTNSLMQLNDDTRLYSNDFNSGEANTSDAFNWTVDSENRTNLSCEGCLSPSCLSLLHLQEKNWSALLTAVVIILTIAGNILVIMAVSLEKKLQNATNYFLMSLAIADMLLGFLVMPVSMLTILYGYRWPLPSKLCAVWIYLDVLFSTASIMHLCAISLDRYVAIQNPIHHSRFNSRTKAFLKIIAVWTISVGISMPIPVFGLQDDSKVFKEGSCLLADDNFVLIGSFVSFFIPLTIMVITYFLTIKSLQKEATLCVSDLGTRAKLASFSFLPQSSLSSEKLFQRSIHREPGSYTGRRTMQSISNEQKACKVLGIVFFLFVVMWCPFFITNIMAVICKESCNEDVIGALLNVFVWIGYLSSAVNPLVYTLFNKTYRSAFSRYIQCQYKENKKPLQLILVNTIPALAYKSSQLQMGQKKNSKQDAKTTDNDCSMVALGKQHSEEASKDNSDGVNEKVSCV

| Compound | Ki [1, 4] [nM] | Ki [2] [nM] | Ki [3] [nM] | Ki [1] [nM] |
| --- | --- | --- | --- | --- |
| Cn1ncc(Br)c1-c1cc(Nc2ncc(C(F)(F)F)cc2F)cnc1OCCO [I-082] |  | 0.358 |  | 0.184 |
| COc1ncccc1-c1cc(Nc2ncc(C(F)(F)F)cc2F)ccc1OCCO [Compound I-014] | 0.413 | 8.88 |  |  |
| Cn1cnc(Cl)c1-c1cc(Nc2ncc(C(F)(F)F)cc2F)ccc1OCCO [Compound I-095] | 0.372 | 0.761 |  |  |
| Cn1ncc(C#N)c1-c1cc(Nc2ncc(C(F)(F)F)cc2F)c(Cl)cc1OCCO [Compound I-109] |  | 15.4 |  | 0.598 |
| Cn1ncc(Br)c1-c1cc(Nc2nccc3cccnc23)ccc1OCCO [Compound I-111] | 2.98 | 24.2 |  |  |
| OCCOc1ccc(Nc2ncc(C(F)(F)F)cc2F)cc1-c1c(F)cccc1Cl [Compound I-019] | 0.548 | 3.12 |  |  |
| Cn1ncc(Br)c1-c1cc(Nc2ccc(Cl)cn2)cnc1OCCO [Compound I-116] | 0.325 | 0.745 |  |  |
| OCCOc1ccc(Nc2ncc(C(F)(F)F)cc2F)cc1-c1ccnc(F)c1Cl [Compound I-026] | 0.894 | 7.89 |  |  |
| Cc1cnn(C)c1-c1cc(Nc2ncc(C(F)(F)F)cc2F)c(F)cc1OCCO [Compound I-144] | 0.341 | 2.49 |  |  |
| Cn1ncc(C#N)c1-c1cc(Nc2ncc(Cl)cc2F)ccc1OCCO [Compound I-051] | 0.318 | 2.6 |  |  |
| Cn1ncc(Br)c1-c1cc(Nc2nc3cc(Br)ccc3n2C)ccc1OCCO [Compound I-084] | 0.442 | 0.297 |  |  |
| CCc1cnn(C)c1-c1cc(Nc2ncc(C(F)(F)F)cc2F)ccc1OCCO [Compound I-055] | 0.396 | 0.745 |  |  |
| Cn1ncc(C#N)c1-c1cc(Nc2ncc(C(F)(F)F)cc2F)c(F)cc1OCCO [I-108] |  | 6.23 |  | 0.478 |
| COc1cnc(Nc2ccc(OCCO)c(-c3c(Br)cnn3C)c2)c(F)c1 [Compound I-079] | 0.295 | 0.625 |  |  |
| Cc1nc(COC2CCOCC2)nc(C)c1-c1cc(Nc2ncc(C(F)(F)F)cc2Cl)ncc1OCCO [Compound I-381] | 2.66 |  | 3.58 |  |
| COCc1nc(C)c(-c2nc(Nc3ccc(C(F)(F)F)cn3)c(F)cc2OCCO)c(C)n1 [Compound I-334] | 3.49 |  | 9.69 |  |
| COCc1nc(C)c(-c2cc(Nc3ccc(OCc4ccccc4)cn3)ncc2OCCO)c(C)n1 [Compound I-324] | 0.421 |  | 8.52 |  |
| OCCOc1cnc(Nc2ncc(C(F)(F)F)cc2F)cc1-c1cccnc1C(F)F [Compound I-366] | 2.19 |  | 59.1 |  |
| COCc1nc(C)c(-c2cc(Nc3ncc(OC(F)F)cc3Cl)ncc2OCCO)c(C)n1 [Compound I-231] | 3.78 |  | 5.1 |  |
| Cn1ncc(Br)c1-c1cc(Nc2nc3ccc(F)cc3s2)c(Cl)cc1OCCO [Compound I-408] | 0.384 |  | 1.89 |  |
| COCc1nc(C)c(-c2cc(Nc3ccc(-c4ccc(Cl)cc4)cn3)ncc2OCCO)c(C)n1 [Compound I-273] | 0.309 |  | 0.395 |  |
| Cc1nc(C2CCC2)nc(C)c1-c1cc(Nc2ncc(C(F)(F)F)cc2Cl)ncc1OCCO [Compound I-208] | 1.02 |  | 1.67 |  |
| COCc1nc(C)c(-c2cc(Nc3ncc(-c4ccc(F)c(F)c4)cc3Cl)ncc2OCCO)c(C)n1 [Compound I-254] | 0.496 |  | 0.278 |  |
| COCc1nc(C)c(-c2cc(Nc3ncc(-n4cc(C(F)F)cn4)cc3Cl)ncc2OCCO)c(C)n1 [Compound I-327] | 2.4 |  | 2.69 |  |
| Cn1ncc(Cl)c1-c1cc(Nc2ncc(Cl)cn2)c(F)cc1OCCO [Compound I-162] | 0.395 |  | 4.25 |  |
| Cc1nc(C)c(-c2cc(Nc3ncc(OC(F)(F)F)cc3F)ncc2OCCO)c(C)n1 [Compound I-300] | 1.33 |  | 7.17 |  |

The remaining molecules from weak to strong by Ki [1, 4], led by results:

| Ki [1, 4] [nM] | Ki [2] [nM] | Ki [3] [nM] | Compound | Ki [1] [nM] |
| --- | --- | --- | --- | --- |
| 0.292 | 0.206 |  | Cn1ncc(Br)c1-c1cc(Nc2ccc(C(F)(F)F)cn2)c(F)cc1OCCO [Compound I-151] |  |
| 0.29 | 1.15 |  | CCn1ncc(C)c1-c1cc(Nc2ncc(C(F)(F)F)cc2F)ccc1OCCO [Compound I-068] |  |
| 0.289 | 1.4 |  | Cn1ncc(Br)c1-c1cc(Nc2ncc(C#N)s2)ccc1OCCO [Compound I-037] |  |
| 0.276 | 25.5 |  | Cn1ncc(Br)c1-c1cc(Nc2nccc3ccccc23)ccc1OCCO [Compound I-112] |  |
| 0.272 | 6.43 |  | Cc1cnccc1-c1cc(Nc2ncc(C(F)(F)F)cc2F)ccc1OCCO [Compound I-012] |  |
| 0.262 | 0.596 |  | Cn1ncc(Br)c1-c1cc(Nc2nc3ccccc3s2)cnc1OCCO [Compound I-118] |  |
| 0.262 |  | 1.08 | Cn1ncc(Br)c1-c1nc(Nc2ccc(OC(F)(F)F)cc2)ncc1OCCO [Compound I-347] |  |
| 0.258 | 0.202 |  | Cn1ncc(Br)c1-c1cc(Nc2ccc(CC(F)(F)F)cn2)ccc1OCCO [Compound I-094] |  |
| 0.241 | 0.305 |  | Cn1ncc(Br)c1-c1cc(Nc2ncc(Cl)cc2F)cnc1OCCO [Compound I-117] |  |
| 0.238 | 2.33 |  | Cc1cnn(C)c1-c1cc(Nc2ccc(C(F)(F)F)cn2)c(F)cc1OCCO [Compound I-157] |  |
| 0.236 | 0.843 |  | Cc1cnn(C2CC2)c1-c1cc(Nc2ncc(C(F)(F)F)cc2F)ccc1OCCO [Compound I-074] |  |
| 0.235 | 1.89 |  | Cn1ncc(F)c1-c1cc(Nc2ncc(C(F)(F)F)cc2F)ccc1OCCO [Compound I-018] |  |
| 0.23 | 3.25 |  | Cn1ncc(Br)c1-c1cc(Nc2nc3cc(F)ccc3[nH]2)ccc1OCCO [Compound I-077] |  |
| 0.224 | 7.15 |  | Cn1ncc(C#N)c1-c1cc(Nc2ccc(C(F)(F)F)cn2)ccc1OCCO [Compound I-099] |  |
| 0.212 |  | 1.38 | Cn1ncc(Br)c1-c1nc(Nc2ccc(Cl)cc2F)ncc1OCCO [Compound I-340] |  |
| 0.204 |  | 6.51 | Cn1ncc(Br)c1-c1nc(Nc2ccc(Cl)c(C(F)(F)F)c2)ncc1OCCO [Compound I-350] |  |
| 0.202 | 4.76 |  | Cn1ncc(F)c1-c1cc(Nc2ncc(C(F)(F)F)cc2F)c(F)cc1OCCO [Compound I-145] |  |
| 0.179 |  | 0.975 | Cn1ncc(Br)c1-c1nc(Nc2ccc(OC(F)F)cc2)ncc1OCCO [Compound I-353] |  |
| 0.167 | 0.277 |  | Cn1ncc(Cl)c1-c1cc(Nc2ncc(Cl)cc2F)ccc1OCCO [Compound I-136] |  |
| 0.16 |  | 5.81 | Cn1ncc(F)c1-c1cc(Nc2ncc(Cl)cc2F)c(F)cc1OCCO [Compound I-171] |  |
